From patent US20060257466A1, “Administration of macrophage targeted formulations of compounds which modulate cholesterol-metabolizing enzymes for treatment of atherosclerosis” (priority 2005, published 2006)

Test system: J774 macrophages
Assay: Cholesterol efflux in vivo (macrophage cholesterol export)
Details: mice injected with [3H]-cholesterol-loaded J774 cells; 20 μg, tail vein; versus PBS vehicle; FIG. 1
Procedure: FIG. 1 is a line graph comparing in vivo macrophage cholesterol export in mice treated with a liposomal formulation of the ACAT inhibitor, Sandoz 58-035, at an estimated dose of 20 μg (open circles), mice treated with 20 μg of free non-liposome formulated Sandoz 58-035 (closed circles), and mice administered phosphate buffered saline (closed triangles).
For non-liposome formulated Sandoz 58-035 experiments, 10 ul of the stock solution (2 mg/ml) was diluted with 190 ul of phosphate buffered saline (PBS) to give a final Sandoz 58-035 solution of 20 μg/200 μl. Two hundred microliters of this solution containing 20 μg of Sandoz 58-035 was injected into each mouse through the tail vein.
Sandoz 58-035 was liposome formulated using a modified method of Jonas and co-workers (Jonas et al. J. Bio. Chem. 1989 264:4818-4825). […]
To determine cholesterol export in vivo, J774 cells were loaded with cholesterol and simultaneously incubated for 3 hours with 0.5 μCi/mL [^3H]-cholesterol, followed by an overnight equilibration period as described by Tam et al. (J. Lipid Res. 2002 43:1410-1420). […] Cholesterol efflux was determined by measuring the appearance of [^3H]-cholesterol in plasma by scintillation spectrometry. […]

For `CCCCCCCCCC[Si](C)(C)CCC(=O)NC(Cc1ccc(C)cc1)c1ccccc1` (stereo not shown) [Sandoz 58-035], the “in vivo macrophage cholesterol export (result in words)” value was “did not increase macrophage cholesterol export over the vehicle”.
